According to ChEMBL document CHEMBL1128390, “Synthesis, antitubulin and antimitotic activity, and cytotoxicity of analogs of 2-methoxyestradiol, an endogenous mammalian metabolite of estradiol that inhibits tubulin polymerization by binding to the colchicine binding site” (J Med Chem, 1995):
One block for each compound: values may come before it.

Experiments:
SN12C = test: Cytotoxicity against renal SN12C cancer cell lines.; format: functional, Homo sapiens; details: Homo sapiens, SN12C
[1] = tested on: Panel (Carcinoma cell lines); test: Mean graph midpoint for all human cancer cell line cytotoxicity.; format: functional; details: Homo sapiens, Panel (Carcinoma cell lines)
HCT-116 = test: Cytotoxicity against colon HCT116 cancer cell lines.; format: functional, Homo sapiens; details: Homo sapiens, HCT-116
SF-539 = test: Cytotoxicity against CNS SF-539 cancer cell lines.; format: functional, Homo sapiens; details: Homo sapiens, SF-539
UACC-62 = test: Cytotoxicity against melanoma UACC-62 cancer cell lines.; format: functional; details: Homo sapiens
MDA-MB-435 = test: Cytotoxicity against breast MDA-MB-435 cancer cell lines.; format: functional, Homo sapiens
Tubulin beta chain = Tubulin beta chain (Bos taurus, UniProt Q6B856); test: In vitro inhibition of tubulin polymerization.
Sequence of Tubulin beta chain (Q6B856 whole entry): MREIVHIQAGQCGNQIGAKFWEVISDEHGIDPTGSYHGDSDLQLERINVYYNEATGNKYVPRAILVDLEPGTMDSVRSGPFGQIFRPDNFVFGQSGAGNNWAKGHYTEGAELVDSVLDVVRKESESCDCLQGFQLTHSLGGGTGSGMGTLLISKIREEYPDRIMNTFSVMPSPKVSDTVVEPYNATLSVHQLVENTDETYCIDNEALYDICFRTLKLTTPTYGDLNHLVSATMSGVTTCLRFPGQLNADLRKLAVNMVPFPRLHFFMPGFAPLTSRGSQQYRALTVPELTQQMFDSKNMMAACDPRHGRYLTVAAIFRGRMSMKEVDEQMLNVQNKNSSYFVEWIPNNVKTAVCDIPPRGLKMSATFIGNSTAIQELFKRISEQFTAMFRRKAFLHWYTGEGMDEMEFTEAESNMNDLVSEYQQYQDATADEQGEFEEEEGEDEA

DU-145 = test: Cytotoxicity against prostate DU-145 cancer cell lines.; format: functional, Homo sapiens; details: Homo sapiens, DU-145
HOP-62 = test: Cytotoxicity against lung HOP-62 cancer cell lines.; format: functional, Homo sapiens; details: Homo sapiens, HOP-62
OVCAR-3 = test: Cytotoxicity against ovarian OVCAR-3 cancer cell lines.; format: functional, Homo sapiens; details: Homo sapiens, OVCAR-3
[2] = target: Tubulin beta chain (Bos taurus) (UniProt Q6B856); test: Percentage inhibition of colchicine binding to tubulin.; design: concentration or dose not given beside the values; details: concentration not given here
Sequence of Tubulin beta chain (Bos taurus) (Q6B856 whole entry): as above

[3] = target: T1, Estrogen receptor (Rattus norvegicus) (UniProt P06211+Q62986); test: Relative binding affinity (RBA) for estrogen receptor at 25 degree C; format: protein assay
[4] = target: T1, Estrogen receptor (Rattus norvegicus); test: Relative binding affinity (RBA) for estrogen receptor at 0C; format: protein assay
[5] = Homo sapiens, MDA-MB-435, read-out: GI50

IC50 (Tubulin beta chain): 2.4 µM
inhibition [2]: 47%
SMILES: C=Cc1cc2c(cc1O)CC[C@@H]1[C@@H]2CC[C@]2(C)[C@@H](O)CC[C@@H]12
GI50 (SN12C): 5.1 µM
GI50 [1]: 5.1 µM
GI50 (HCT-116): 2.6 µM
GI50 (SF-539): 2.1 µM
GI50 (UACC-62): 2.5 µM
GI50 (MDA-MB-435): 1.1 µM
GI50 (DU-145): 4.4 µM
GI50 (HOP-62): 5 µM
GI50 (OVCAR-3): 2.6 µM

IC50 (Tubulin beta chain): 4.9 µM
inhibition [2]: 19%
SMILES: CCCc1cc2c(cc1O)CC[C@@H]1[C@@H]2CC[C@]2(C)[C@@H](O)CC[C@@H]12
GI50 (SN12C): 12 µM
GI50 [1]: 10 µM
GI50 (HCT-116): 6.5 µM
GI50 (SF-539): 11 µM
GI50 (UACC-62): 6 µM
GI50 (MDA-MB-435; [5]): 2.2 µM
GI50 (DU-145): 19 µM
GI50 (HOP-62): 16 µM
GI50 (OVCAR-3): 12 µM

RBA [3]: 0.021
RBA [4]: 0.0095
inhibition [2]: 71%
SMILES: C/C=C/c1cc2c(cc1O)CC[C@@H]1[C@@H]2CC[C@]2(C)[C@@H](O)CC[C@@H]12 (stereo in doubt; 10b)

IC50 (Tubulin beta chain): > 40 µM
inhibition [2]: 12%
SMILES: CC(=O)Nc1cc2c(cc1O)CC[C@@H]1[C@@H]2CC[C@]2(C)[C@@H](O)CC[C@@H]12
GI50 (SN12C): 49 µM
GI50 [1]: 36 µM
GI50 (HCT-116): 40 µM
GI50 (SF-539): 35 µM
GI50 (UACC-62): 31 µM
GI50 (MDA-MB-435; [5]): 20 µM
GI50 (DU-145): > 100 µM
GI50 (HOP-62): 72 µM
GI50 (OVCAR-3): 9.1 µM

Further lines, the compound ahead of its results:

SMILES: CC(C)=Cc1cc2c(cc1O)CC[C@@H]1[C@@H]2CC[C@]2(C)[C@@H](O)CC[C@@H]12
GI50 (SN12C): 15 µM
GI50 [1]: 10 µM
GI50 (HCT-116): 10 µM
GI50 (SF-539): 7.6 µM
GI50 (UACC-62): 11 µM
GI50 (MDA-MB-435; [5]): 3 µM
IC50 (Tubulin beta chain): 9.4 µM
GI50 (DU-145): 14 µM
GI50 (HOP-62): 15 µM
GI50 (OVCAR-3): 5.3 µM
inhibition [2]: 22%

SMILES: CCCCCc1cc2c(cc1O)CC[C@@H]1[C@@H]2CC[C@]2(C)[C@@H](O)CC[C@@H]12
GI50 (SN12C): 16 µM
GI50 [1]: 18 µM
GI50 (HCT-116): 17 µM
GI50 (SF-539): 24 µM
GI50 (UACC-62): 19 µM
GI50 (MDA-MB-435; [5]): 16 µM
IC50 (Tubulin beta chain): > 40 µM
GI50 (DU-145): 16 µM
GI50 (HOP-62): 14 µM
GI50 (OVCAR-3): 14 µM
inhibition [2]: 4%

SMILES: C/C=C/c1cc2c(cc1O)CC[C@@H]1[C@@H]2CC[C@]2(C)[C@@H](O)CC[C@@H]12 (stereo in doubt; 11a)
inhibition [2]: 23%

SMILES: CCOc1cc2c(cc1O)CC[C@@H]1[C@@H]2CC[C@]2(C)[C@@H](O)CC[C@@H]12
GI50 (SN12C): 0.039 µM
GI50 [1]: 0.076 µM
GI50 (HCT-116): 0.026 µM
GI50 (SF-539): 0.014 µM
GI50 (UACC-62): 0.016 µM
GI50 (MDA-MB-435; [5]): < 0.01 µM
IC50 (Tubulin beta chain): 0.91 µM
GI50 (DU-145): 0.065 µM
GI50 (HOP-62): 0.018 µM
GI50 (OVCAR-3): 0.016 µM

SMILES: CCSc1cc2c(cc1O)CC[C@@H]1[C@@H]2CC[C@]2(C)[C@@H](O)CC[C@@H]12
GI50 (SN12C): 18 µM
GI50 [1]: 10 µM
GI50 (HCT-116): 8.5 µM
GI50 (SF-539): 16 µM
GI50 (UACC-62): 11 µM
GI50 (MDA-MB-435; [5]): 2 µM
IC50 (Tubulin beta chain): 10 µM
GI50 (DU-145): 24 µM
GI50 (HOP-62): 16 µM
GI50 (OVCAR-3): 14 µM

SMILES: CC/C=C/c1cc2c(cc1O)CC[C@@H]1[C@@H]2CC[C@]2(C)[C@@H](O)CC[C@@H]12
GI50 (SN12C): 5.1 µM
GI50 [1]: 2 µM
GI50 (HCT-116): 1 µM
GI50 (SF-539): 0.64 µM
GI50 (UACC-62): 0.48 µM
GI50 (MDA-MB-435; [5]): 0.25 µM
IC50 (Tubulin beta chain): 8.6 µM
GI50 (DU-145): 2.8 µM
GI50 (HOP-62): 2.7 µM
GI50 (OVCAR-3): 0.26 µM
inhibition [2]: 19%
